The source of these data is patent publication US9492471B2, “Methods of treating a disease or disorder associated with Bruton'S Tyrosine Kinase” (Celgene Avilomics Research, Inc., priority 2013, dated 2016).

Where two headings read alike, the source gives them in different places.

Assay in all cases: HotSpot kinase profiling
Common to all, as to format: biochemical

In one test the target is T1, TESK1 (Homo sapiens, UniProt Q15569).
T1 construct: purchased Reaction Biology Corp
Put shortly:
(§1)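 Activity is measured by radiolabel transfer captured on P81 filters after a 2 h room-temperature reaction of kinase, substrate and cofactors. Values are percent inhibition against DMSO.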

The target in a further test is T2, DAPK1 (Homo sapiens, UniProt P53355).
T2 construct: purchased Reaction Biology Corp
T2 sequence (P53355 whole entry): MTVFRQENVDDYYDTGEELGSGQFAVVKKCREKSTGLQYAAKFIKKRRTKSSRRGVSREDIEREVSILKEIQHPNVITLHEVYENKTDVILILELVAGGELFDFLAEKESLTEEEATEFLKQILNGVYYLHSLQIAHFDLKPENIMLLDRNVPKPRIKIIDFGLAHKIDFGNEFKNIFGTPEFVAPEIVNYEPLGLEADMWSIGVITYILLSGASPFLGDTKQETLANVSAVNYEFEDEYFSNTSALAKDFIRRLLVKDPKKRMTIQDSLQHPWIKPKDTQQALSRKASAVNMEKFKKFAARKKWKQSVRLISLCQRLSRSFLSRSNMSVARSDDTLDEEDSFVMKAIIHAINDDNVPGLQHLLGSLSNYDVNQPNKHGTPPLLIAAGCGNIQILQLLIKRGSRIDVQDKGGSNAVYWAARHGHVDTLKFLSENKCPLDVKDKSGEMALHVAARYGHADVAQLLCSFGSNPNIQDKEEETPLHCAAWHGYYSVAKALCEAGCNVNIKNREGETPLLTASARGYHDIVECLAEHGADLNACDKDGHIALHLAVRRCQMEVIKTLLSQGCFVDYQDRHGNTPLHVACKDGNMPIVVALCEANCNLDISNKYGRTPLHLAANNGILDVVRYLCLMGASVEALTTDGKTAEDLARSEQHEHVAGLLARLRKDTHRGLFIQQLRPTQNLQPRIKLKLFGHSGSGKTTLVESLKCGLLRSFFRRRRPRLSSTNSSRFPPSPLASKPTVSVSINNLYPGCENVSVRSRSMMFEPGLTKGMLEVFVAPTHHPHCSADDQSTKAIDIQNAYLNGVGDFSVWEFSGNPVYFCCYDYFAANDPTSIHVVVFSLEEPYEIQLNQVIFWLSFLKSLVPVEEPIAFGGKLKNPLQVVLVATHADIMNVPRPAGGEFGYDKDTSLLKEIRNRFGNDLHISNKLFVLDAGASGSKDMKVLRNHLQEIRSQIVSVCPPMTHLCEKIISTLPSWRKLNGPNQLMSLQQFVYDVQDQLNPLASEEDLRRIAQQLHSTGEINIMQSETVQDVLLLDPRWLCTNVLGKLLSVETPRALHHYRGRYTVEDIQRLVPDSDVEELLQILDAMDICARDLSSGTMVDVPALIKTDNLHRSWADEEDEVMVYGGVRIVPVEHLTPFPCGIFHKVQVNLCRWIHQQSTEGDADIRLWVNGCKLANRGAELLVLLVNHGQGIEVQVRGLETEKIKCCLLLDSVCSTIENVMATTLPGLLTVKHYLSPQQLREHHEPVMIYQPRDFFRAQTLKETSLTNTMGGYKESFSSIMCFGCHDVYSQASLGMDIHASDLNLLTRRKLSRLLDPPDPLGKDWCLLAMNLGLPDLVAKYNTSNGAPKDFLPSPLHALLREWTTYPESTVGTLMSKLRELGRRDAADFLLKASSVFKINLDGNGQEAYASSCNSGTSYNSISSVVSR
Put shortly: as §1

The target of the next test is T3, c-MER (Homo sapiens, UniProt Q12866).
T3 construct: purchased Reaction Biology Corp
T3 sequence (Q12866 21-999): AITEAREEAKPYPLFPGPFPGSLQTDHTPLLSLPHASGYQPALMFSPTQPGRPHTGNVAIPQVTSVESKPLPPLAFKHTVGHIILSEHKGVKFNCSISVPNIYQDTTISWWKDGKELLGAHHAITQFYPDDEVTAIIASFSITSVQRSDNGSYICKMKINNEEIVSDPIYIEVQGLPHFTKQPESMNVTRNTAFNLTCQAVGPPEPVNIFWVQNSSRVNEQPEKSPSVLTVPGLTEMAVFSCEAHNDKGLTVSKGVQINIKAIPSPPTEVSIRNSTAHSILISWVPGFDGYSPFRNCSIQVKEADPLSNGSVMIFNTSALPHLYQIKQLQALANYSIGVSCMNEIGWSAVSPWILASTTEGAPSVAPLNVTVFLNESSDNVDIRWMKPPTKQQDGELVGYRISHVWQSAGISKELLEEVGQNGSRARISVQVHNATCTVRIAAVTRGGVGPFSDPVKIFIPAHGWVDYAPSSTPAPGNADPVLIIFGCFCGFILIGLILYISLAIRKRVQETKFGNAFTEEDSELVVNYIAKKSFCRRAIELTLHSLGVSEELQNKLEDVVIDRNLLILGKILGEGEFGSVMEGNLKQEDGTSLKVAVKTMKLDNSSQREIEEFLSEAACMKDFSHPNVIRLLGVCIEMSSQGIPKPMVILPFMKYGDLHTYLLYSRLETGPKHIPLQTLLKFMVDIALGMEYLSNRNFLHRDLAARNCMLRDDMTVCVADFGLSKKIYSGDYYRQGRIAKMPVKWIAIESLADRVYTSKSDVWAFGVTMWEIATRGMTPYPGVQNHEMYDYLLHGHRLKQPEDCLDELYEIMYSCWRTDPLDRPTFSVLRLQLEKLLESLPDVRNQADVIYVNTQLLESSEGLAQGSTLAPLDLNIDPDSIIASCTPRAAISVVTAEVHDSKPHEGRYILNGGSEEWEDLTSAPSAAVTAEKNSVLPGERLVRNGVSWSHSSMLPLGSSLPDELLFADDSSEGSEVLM
Put shortly: as §1

A further test addresses T4, GRK4 (Homo sapiens, UniProt P32298).
T4 construct: purchased Reaction Biology Corp
Put shortly:
as §1

A further test addresses T5, MAPKAPK2 (Homo sapiens, UniProt P49137).
T5 construct: purchased Reaction Biology Corp
The gist of the method: as §1

A further test addresses T6, Btk (Homo sapiens, UniProt Q06187).
T6 construct: purchased Reaction Biology Corp
The gist of the method:
as §1

Another test concerns the target T7, PLK3 (Homo sapiens, UniProt Q9H4B4).
T7 construct: purchased Reaction Biology Corp
Put shortly: as §1

The mark [1] stands for this setting: read-out: % Enzyme Activity (relative to DMSO controls) Run 1.
[2] abbreviates: read-out: % Enzyme Activity (relative to DMSO controls) Run 2.

T6 sequence (Q06187 whole entry): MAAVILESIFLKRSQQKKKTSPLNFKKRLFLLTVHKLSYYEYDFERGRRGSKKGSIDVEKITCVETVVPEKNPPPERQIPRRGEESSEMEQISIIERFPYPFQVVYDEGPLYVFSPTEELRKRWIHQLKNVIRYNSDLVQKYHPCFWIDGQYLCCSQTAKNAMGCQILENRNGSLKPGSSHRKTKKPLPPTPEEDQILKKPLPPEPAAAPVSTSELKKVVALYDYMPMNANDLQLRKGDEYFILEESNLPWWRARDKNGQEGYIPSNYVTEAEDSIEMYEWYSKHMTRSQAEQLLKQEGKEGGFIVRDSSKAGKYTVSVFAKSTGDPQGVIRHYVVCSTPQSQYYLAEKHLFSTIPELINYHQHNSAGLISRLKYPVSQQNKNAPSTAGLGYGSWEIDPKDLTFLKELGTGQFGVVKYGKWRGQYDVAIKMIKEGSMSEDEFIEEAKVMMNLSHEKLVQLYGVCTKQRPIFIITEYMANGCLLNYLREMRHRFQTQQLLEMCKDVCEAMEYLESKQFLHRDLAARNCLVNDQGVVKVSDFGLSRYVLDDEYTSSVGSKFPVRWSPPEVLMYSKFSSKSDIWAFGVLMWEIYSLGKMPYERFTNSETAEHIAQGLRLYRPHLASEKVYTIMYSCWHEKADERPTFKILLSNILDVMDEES
T1 sequence (Q15569 whole entry): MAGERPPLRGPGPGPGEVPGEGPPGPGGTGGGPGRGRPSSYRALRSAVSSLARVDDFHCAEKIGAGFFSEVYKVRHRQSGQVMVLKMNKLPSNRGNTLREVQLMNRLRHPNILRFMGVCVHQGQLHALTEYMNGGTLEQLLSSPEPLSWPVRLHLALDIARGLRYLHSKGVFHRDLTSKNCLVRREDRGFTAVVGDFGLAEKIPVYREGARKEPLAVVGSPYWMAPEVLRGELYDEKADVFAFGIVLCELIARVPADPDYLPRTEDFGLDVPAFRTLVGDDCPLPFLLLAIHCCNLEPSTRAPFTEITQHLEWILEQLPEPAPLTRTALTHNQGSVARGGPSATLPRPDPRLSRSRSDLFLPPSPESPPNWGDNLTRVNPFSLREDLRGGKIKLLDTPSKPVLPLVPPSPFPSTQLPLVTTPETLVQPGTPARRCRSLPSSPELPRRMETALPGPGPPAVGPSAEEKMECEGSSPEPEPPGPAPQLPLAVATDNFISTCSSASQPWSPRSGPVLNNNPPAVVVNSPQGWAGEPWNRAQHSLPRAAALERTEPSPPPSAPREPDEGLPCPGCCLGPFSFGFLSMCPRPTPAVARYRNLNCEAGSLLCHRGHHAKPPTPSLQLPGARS
T5 sequence (P49137 whole entry): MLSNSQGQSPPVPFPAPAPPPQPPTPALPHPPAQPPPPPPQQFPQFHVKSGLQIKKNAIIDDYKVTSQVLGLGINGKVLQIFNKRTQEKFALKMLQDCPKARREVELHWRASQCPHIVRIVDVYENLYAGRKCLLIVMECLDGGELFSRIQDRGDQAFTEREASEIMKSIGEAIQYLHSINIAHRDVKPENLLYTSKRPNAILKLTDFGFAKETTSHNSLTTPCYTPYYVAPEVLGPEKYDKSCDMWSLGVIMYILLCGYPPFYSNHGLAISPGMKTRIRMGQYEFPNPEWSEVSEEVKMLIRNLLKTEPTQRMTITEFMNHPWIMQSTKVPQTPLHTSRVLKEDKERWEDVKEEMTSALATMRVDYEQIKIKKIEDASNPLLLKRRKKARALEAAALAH
T7 sequence (Q9H4B4 whole entry): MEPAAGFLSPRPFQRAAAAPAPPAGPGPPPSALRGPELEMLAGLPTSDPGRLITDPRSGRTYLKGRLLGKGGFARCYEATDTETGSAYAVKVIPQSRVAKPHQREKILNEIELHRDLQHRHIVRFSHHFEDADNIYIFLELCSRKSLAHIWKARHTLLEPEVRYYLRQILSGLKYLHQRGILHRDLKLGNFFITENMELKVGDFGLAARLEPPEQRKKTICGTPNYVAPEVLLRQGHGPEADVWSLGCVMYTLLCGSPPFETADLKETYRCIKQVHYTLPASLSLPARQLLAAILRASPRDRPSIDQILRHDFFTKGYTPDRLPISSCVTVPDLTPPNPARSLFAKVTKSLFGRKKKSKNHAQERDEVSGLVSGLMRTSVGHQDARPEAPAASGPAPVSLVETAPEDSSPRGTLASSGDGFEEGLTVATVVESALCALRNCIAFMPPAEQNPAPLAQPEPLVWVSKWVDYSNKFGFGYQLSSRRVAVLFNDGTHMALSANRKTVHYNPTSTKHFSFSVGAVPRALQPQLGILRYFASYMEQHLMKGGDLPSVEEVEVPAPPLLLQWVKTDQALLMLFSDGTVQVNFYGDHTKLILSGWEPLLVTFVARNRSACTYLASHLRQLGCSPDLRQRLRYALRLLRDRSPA
T4 sequence (P32298 whole entry): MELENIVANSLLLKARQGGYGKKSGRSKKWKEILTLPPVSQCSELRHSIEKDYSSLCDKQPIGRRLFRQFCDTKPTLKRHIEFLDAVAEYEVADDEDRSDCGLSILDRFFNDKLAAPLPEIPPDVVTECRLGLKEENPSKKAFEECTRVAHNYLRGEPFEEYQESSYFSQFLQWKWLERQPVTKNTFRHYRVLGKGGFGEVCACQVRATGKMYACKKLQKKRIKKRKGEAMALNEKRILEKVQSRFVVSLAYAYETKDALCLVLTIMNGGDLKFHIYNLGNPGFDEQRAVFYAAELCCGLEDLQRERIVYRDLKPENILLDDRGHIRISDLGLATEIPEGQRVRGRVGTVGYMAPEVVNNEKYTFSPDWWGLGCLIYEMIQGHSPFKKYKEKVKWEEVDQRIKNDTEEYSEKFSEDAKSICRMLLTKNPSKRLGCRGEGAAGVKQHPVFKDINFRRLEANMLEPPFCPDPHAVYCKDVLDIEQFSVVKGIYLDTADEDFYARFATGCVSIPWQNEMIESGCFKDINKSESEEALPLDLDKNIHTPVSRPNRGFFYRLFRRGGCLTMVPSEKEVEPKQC

Regarding `C=CC(=O)Nc1cccc(Nc2nc(Nc3ccc(OCCOC)c(F)c3)ncc2F)c1` [Compound 2], the inhibition at 3 µM against TESK1 was 2.13%; at DAPK1, 1.86%; on c-MER, 33.6%; against GRK4 it was -6.61%; against MAPKAPK2 it was -7.86%; on Btk, 95.5%. The inhibition at 3 µM against PLK3 was determined as 1.28%. The remaining activity at 3 µM on TESK1 (setting [1]) amounted to 97.2%; on TESK1 (setting [2]), 98.5%; at DAPK1 (setting [1]) it was 103%; on DAPK1 (setting [2]), 93.5%; at c-MER (setting [1]), 66.5%; at c-MER (setting [2]), 66.4%. Moreover, the remaining activity at 3 µM came to 107% at GRK4 (setting [1]); 106% at GRK4 (setting [2]); 110% on MAPKAPK2 (setting [1]); 106% at MAPKAPK2 (setting [2]); 3.69% at Btk (setting [1]); 5.4% at Btk (setting [2]). Also, the figures for the remaining activity at 3 µM on PLK3 (setting [1]) and on PLK3 (setting [2]) were 97% and 100%, respectively.
